# According to US9066866B2, “Direct cellular energy delivery system” (University of Louisville Research Foundation, Inc., priority 2002, dated 2015):
# How the values were obtained:
# amputated hind legs = assay: Limb replantation after perfusion of amputated hind legs; assay type: in vivo, rats; conditions: rat
# Protocol: Hind legs were amputated from rats, and the major feed arteries for the severed limbs were cannulated for infusion of ATP-SUV, (1 mM ATP) solution. The limbs were perfused with ATP-SUV or control solutions (see Table 1) every 3 hours, or as deemed necessary by the change in tissue ATP levels. The arterial pressure of the limbs was monitored during infusion to decrease the chance of flow-induced injury, and to monitor the overall preservation of the severed limbs (higher perfusion pressures may indicate limb morbidity). Following the preservation period, the limbs were flushed with Ringers to remove traces of ATP-SUV. The limbs were then surgically reattached, and external indices of limb function after anastomoses were evaluated (limb color, evidence of microthrombi, coagulation, limb temperature). The animals prior to and following replantation received heparin to prevent hemostasis. In addition, animals were placed on antibiotic therapy to reduce infection. Control limbs were perfused with vehicle only, vehicle and ATP only, or vehicle and SUVs only.
# HUVEC = assay: Vesicle absorption and release of 3H-ATP into HUVEC; assay type: cell-based, human
# Protocol: To determine if ATP is also introduced into cells like carboxyfluorescein, vesicle absorption and release of ATP into HUVEC was followed using the ^3H-ATP-containing vesicles of Example 2. The vesicles were incubated with HUVEC for 5, 10, 15, 30, 45, 60, 90, 120, or 240 minutes. The result shown in FIG. 1 is the partition coefficient of ATP inside the cells after 1 hour. […] When the cells were washed repeatedly there was a significant change in the radioactivity of the cells.
smiles,measurement,setting,value
"Nc1ncnc2c1ncn2[C@@H]1O[C@H](COP(=O)(O)OP(=O)(O)OP(=O)(O)O)[C@@H](O)[C@H]1O [^3H-ATP only, adenosine-5′-triphosphate (ATP)]",Limb outcome,amputated hind legs,necrosis
same,change in radioactivity of the cells after repeated washes,HUVEC; 3H-ATP,complete loss of radioactivity
same,"partition coefficient of ATP inside the cells (percent incorporation, rank order)","HUVEC; after 1 hour, FIG. 1","then ^3H-ATP only, without vesicles"
same,mode of cell entry concluded,HUVEC; from wash and fusion data,does not enter cells
